# Measured values as given in patent publication US8779157B2, “MGLUR4 allosteric potentiators, compositions, and methods of treating neurological dysfunction” (Vanderbilt University, priority 2009, dated 2014).
# Target: mGluR4 (UniProt Q14833)
# Assay: mGluR4 potentiation assay (fluorescence, Ca2+ or thallium/GIRK readout; EC20 agonist)
# Assay type: cell-based, human / rat
# Conditions: half maximal effective concentration for mGluR4 potentiation; species of receptor not given
# Protocol: The disclosed compounds and compositions can be evaluated for their ability to act as a potentiator of metabotropic glutamate receptor activity, in particular mGluR4 activity, by any suitable known methodology known in the art. For example, Chinese Hamster Ovary (CHO) cells transfected with human mGluR4 or HEK cells co-transfected with rat mGluR4 and the G-protein regulated Inwardly Rectifying Potassium channel (GIRK) were plated in clear bottom assay plates for assay in a Hamamatsu FDSS Fluorometric Plate Reader. The cells were loaded with either a Ca2+-sensitive fluorescent dye or the thallium responsive dye and the plates were washed and placed into a suitable kinetic plate reader. For human mGluR4 assays, a fluorescence baseline was established for 3-5 seconds, the disclosed compounds were then added to the cells, and the response in cells was measured. Approximately two and a half minutes later, a concentration of mGluR4 orthosteric agonist (e.g. glutamate or L-AP4) eliciting approximately 20% (EC20) of the maximal agonist response was added to the cells, and the response was measured. Two minutes later, a concentration of mGluR4 agonist (e.g. glutamate or L-AP4) eliciting 80% (EC80) of the maximal agonist response was added to the cells, and the response was measured. For rat mGluR4/GIRK experiments, a baseline was established for approximately five seconds, disclosed compounds were added, and either an EC20 or EC80 concentration of agonist was added approximately two and one half minutes later. Potentiation of the agonist response of mGluR4 by the disclosed compounds was observed as an increase in response to the EC20 concentration of agonist in the presence of compound compared to the response to agonist in the absence of compound. Similarly, antagonism of the agonist response of mGluR4 by the disclosed compounds was observed as a decrease in response to the EC80 concentration of agonist in the presence of compound compared to the response to agonist in the absence of compound.
# The above described assay operated in two modes. In the first mode, a range of concentrations of the disclosed compounds are added to cells, followed by a single fixed concentration of agonist. If the compound acts as a potentiatior, an EC50 value for potentiation and a maximum extent of potentiation by the compound at this concentration of agonist is determined by non-linear curve fitting. If the compound acts as a noncompetitive antagonist, an IC50 value is determined by non-linear curve fitting. In the second mode, several fixed concentrations of the disclosed compounds are added to various wells on a plate, followed by a range in concentrations of agonist for each concentration of disclosed compound. The EC50 values for the agonist at each concentration of compound are determined by non-linear curve fitting. A decrease in the EC50 value of the agonist with increasing concentrations of the sample compound (a leftward shift of the agonist concentration-response curve) is an indication of the degree of mGluR4 potentiation at a given concentration of the sample compound. A decrease in the maximal response of the agonist with increasing concentrations of the sample compounds, with or without a rightward shift in agonist potency, is an indication of the degree of noncompetitive antagonism at mGluR4. The second mode also indicates whether the sample compounds also affect the maximum response to mGluR4 to agonists.
row,Structure (SMILES),EC50 [nM]
1,"O=C(Nc1ccc(N2C(=O)C3CSCCN3C2=O)c(Cl)c1)c1cscn1 (centres unmarked) [Example 1.3.43, N-(3-chloro-4-(1,3-dioxodihydro-1H-imidazo[5,1-c][1,4]thiazin-2(3H,8H,8aH)-yl)phenyl)thiazole-4-carboxamide]",3760
2,"CS(=O)(=O)N1CCN2C(=O)N(c3ccc(NC(=O)c4ccccn4)cc3Cl)C(=O)C2C1 (centres unmarked) [Example 1.3.47, N-(3-chloro-4-(7-(methylsulfonyl)-1,3-dioxotetrahydroimidazo[1,5-a]pyrazin-2(1H,3H,5H)-yl)phenyl)picolinamide]",4710
3,"O=C(Nc1ccc(N2C(=O)C3CCCCN3C2=S)c(Cl)c1)c1cscn1 (centres unmarked) [Example 1.3.80, N-(3-chloro-4-(1-oxo-3-thioxohexahydroimidazo[1,5-a]pyridin-2(3H)-yl)phenyl)thiazole-4-carboxamide]",1970
4,"C[C@@]1(Cc2ccccc2)NC(=O)N(c2ccc(NC(=O)c3ccccn3)cc2Cl)C1=O [Example 1.3.20, (S)-N-(4-(4-benzyl-4-methyl-2,5-dioxoimidazolidin-1-yl)-3-chlorophenyl)picolinamide]",604
5,"O=C(Nc1ccc(N2C(=O)C3COCCN3C2=S)c(Cl)c1)c1cnccn1 (centres unmarked) [Example 1.3.31, N-(3-Chloro-4-(1-oxo-3-thioxodihydro-1H-imidazo[5,1-c][1,4]oxazin-2(3H,8H,8aH)-yl)phenyl)pyrazine-2-carboxamide]",3560
6,"CC12CCCCN1C(=O)N(c1ccc(NC(=O)c3ncccc3F)cc1Cl)C2=O (centres unmarked) [Example 1.3.91, N-(3-chloro-4-(8a-methyl-1,3-dioxohexahydroimidazo[1,5-a]pyridin-2(3H)-yl)phenyl)-3-fluoropicolinamide]",3790
7,"COc1cccc(C(=O)Nc2ccc(N3C(=O)N[C@@](C)(Cc4ccccc4)C3=O)c(Cl)c2)n1 [Example 1.3.68, (S)-N-(4-(4-benzyl-4-methyl-2,5-dioxoimidazolidin-1-yl)-3-chlorophenyl)-6-methoxypicolinamide]",5880
8,"O=C(Nc1ccc(N2C(=O)C3COCCN3C2=O)c(Cl)c1)c1nccs1 (centres unmarked) [Example 1.3.25, N-(3-Chloro-4-(1,3-dioxodihydro-1H-imidazo[5,1-c][1,4]oxazin-2(3H,8H,8aH)-yl)phenyl)thiazole-2-carboxamide]",6320
9,"CC(C)(C)OC(=O)N1CCN2C(=O)N(c3ccc(NC(=O)c4ccccn4)cc3Cl)C(=O)C2C1 (centres unmarked) [Example 1.3.44, tert-butyl-2-(2-chloro-4-(picolinamide)phenyl)-1,3-dioxohexahydroimidazo[1,5-a]pyrazine-7(1H)-carboxylate]",754
10,"CC12CCCCN1C(=O)N(c1ccc(NC(=O)c3ccccn3)cc1Cl)C2=O (centres unmarked) [Example 1.3.48, N-(3-chloro-4-(8a-methyl-1,3-dioxohexahydroimidazo[1,5-a]pyridin-2(3H)-yl)phenyl)picolinamide]",434
11,"COc1cc(NC(=O)c2ccccn2)ccc1N1C(=O)N[C@@](C)(Cc2ccc(F)cc2)C1=O [Example 1.3.63, (S)-N-(4-(4-(4-fluorobenzyl)-4-methyl-2,5-dioxoimidazolidin-1-yl)-3-methoxyphenyl)picolinamide]",1040
12,"O=C(Nc1ccc(N2C(=O)C3CS(=O)(=O)CCN3C2=O)c(Cl)c1)c1ccccn1 (centres unmarked) [Example 1.3.41, N-(3-chloro-4-(1,3-dioxodihydro-1H-imidazo[5,1-c][1,4]dioxothiazin-2(3H,8H,8aH)-yl)phenyl)picolinamide]",3030
13,"O=C(Nc1ccc(N2C(=O)C3COCCN3C2=O)c(Cl)c1)c1ccc(Cl)o1 (centres unmarked) [Example 1.3.28, 5-Chloro-N-(3-chloro-4-(1,3-dioxodihydro-1H-imidazo[5,1-c][1,4]oxazin-2(3H,8H,8aH)-yl)phenyl)furan-2-carboxamide]",8770
14,"O=C(Nc1ccc(N2C(=O)C3COCCN3C2=S)c(Cl)c1)c1ccccn1 (centres unmarked) [Example 1.3.30, N-(3-Chloro-4-(1-oxo-3-thioxodihydro-1H-imidazo[5,1-c][1,4]oxazin-2(3H, 8H,8aH)-yl)phenyl)picolinamide]",1470

# Further compounds by falling EC50, results first:
row,EC50 [nM],Structure (SMILES)
1,6200,"O=C(Nc1ccc(N2C(=O)C3CCCCN3C2=O)c(Cl)c1)c1ccc(Cl)o1 (centres unmarked) [Example 1.3.8, 5-Chloro-N-(3-chloro-4-(1,3-dioxotetrahydroimidazo[1,5-a]pyridin-2(1H,3H,5H)-yl)phenyl)furan-2-carboxamide]"
2,6110,"C[C@@]1(Cc2ccccc2)NC(=O)N(c2ccc(NC(=O)c3nccs3)cc2Cl)C1=O [Example 1.3.67, (S)-N-(4-(4-benzyl-4-methyl-2,5-dioxoimidazolidin-1-yl)-3-chlorophenyl)thiazole-2-carboxamide]"
3,5820,"O=C(Nc1ccc(N2C(=O)C3COCCN3C2=O)c(Cl)c1)c1ncccc1F (centres unmarked) [Example 1.3.22, N-(3-Chloro-4-(1,3-dioxodihydro-1H-imidazo[5,1-c][1,4]oxazin-2(3H,8H,8aH)-yl)phenyl)-3-fluoropicolinamide]"
4,4830,"O=C(Nc1ccc(N2C(=O)C3COCCN3C2=O)c(Cl)c1)c1cccc(Cl)n1 (centres unmarked) [Example 1.3.23, 6-Chloro-N-(3-chloro-4-(1,3-dioxodihydro-1H-imidazo[5,1-c][1,4]oxazin-2(3H,8H,8aH)-yl)phenyl)picolinamide]"
5,4210,"CC1(C)NC(=O)N(c2ccc(NC(=O)c3ccccn3)cc2Cl)C1=O [Example 1.3.18, N-(3-chloro-4-(4,4-dimethyl-2,5-dioxoimidazolidin-1-yl)phenyl)picolinamide]"
6,4120,"O=C(Nc1ccc(N2C(=O)NC3(CCCCC3)C2=O)c(C(F)(F)F)c1)c1ccco1 [Example 1.3.55, N-(4-(2,4-dioxo-1,3-diazaspiro[4.5]decan-3-yl)-3-(trifluoromethyl)phenyl)furan-2-carboxamide]"
7,2670,"CC12CCCCN1C(=O)N(c1ccc(NC(=O)c3cscn3)cc1Cl)C2=O (centres unmarked) [Example 1.3.87, N-(3-chloro-4-(8a-methyl-1,3-dioxohexahydroimidazo[1,5-a]pyridin-2(3H)-yl)phenyl)thiazole-4-carboxamide]"
8,1980,"O=C(Nc1ccc(N2C(=O)C3CCCCN3C2=O)c(Cl)c1)c1cscn1 (centres unmarked) [Example 1.3.5, N-(3-Chloro-4-(1,3-dioxotetrahydroimidazo[1,5-a]pyridin-2(1H,3H,5H)-yl)phenyl)thiazole-4-carboxamide]"
9,1630,"C[C@@]1(Cc2ccccc2)NC(=O)N(c2ccc(NC(=O)c3cccc(F)n3)cc2Cl)C1=O [Example 1.3.69, (S)-N-(4-(4-benzyl-4-methyl-2,5-dioxoimidazolidin-1-yl)-3-chlorophenyl)-6-fluoropicolinamide]"
10,1170,"O=C(Nc1ccc(N2C(=O)C3COCCN3C2=S)c(Cl)c1)c1nccs1 (centres unmarked) [Example 1.3.34, N-(3-Chloro-4-(1-oxo-3-thioxodihydro-1H-imidazo[5,1-c][1,4]oxazin-2(3H,8H,8aH)-yl)phenyl)thiazole-2-carboxamide]"
11,380,"O=C(Nc1ccc(N2C(=O)N[C@@H](c3ccccc3)C2=O)c(Cl)c1)c1ccccn1 [Example 1.3.56, (S)-N-(3-chloro-4-(2,5-dioxo-4-phenylimidazolidin-1-yl)phenyl)picolinamide]"
12,295,"CC12CCCCN1C(=S)N(c1ccc(NC(=O)c3ncc(F)cc3F)cc1Cl)C2=O (centres unmarked) [Example 1.3.96, N-(3-chloro-4-(8a-methyl-1-oxo-3-thioxohexahydroimidazo[1,5-a]pyridin-2(3H)-yl)phenyl)-3,5-difluoropicolinamide]"
13,236,"CCN1C(=O)N(c2ccc(NC(=O)c3ccccn3)cc2Cl)C(=O)[C@]1(C)Cc1ccccc1 [Example 1.3.65, (S)-N-(4-(4-benzyl-3-ethyl-4-methyl-2,5-dioxoimidazolidin-1-yl)-3-chlorophenyl)picolinamide]"
14,185,"CC12CCCCN1C(=S)N(c1ccc(NC(=O)c3ccccn3)cc1Cl)C2=O (centres unmarked) [Example 1.3.49, N-(3-chloro-4-(8a-methyl-1-oxo-3-thioxohexahydroimidazo[1,5-a]pyridin-2(3H)-yl)phenyl)picolinamide]"
15,178,"CN1C(=O)N(c2ccc(NC(=O)c3ccccn3)cc2Cl)C(=O)C12CCCCC2 [Example 1.3.52, N-(3-chloro-4-(1-methyl-2,4-dioxo-1,3-diazaspiro[4.5]decan-3-yl)phenyl)picolinamide]"
